Experimental data: ChEMBL document CHEMBL4043199, “Synthesis and optimization of 4,5,6,7-tetrahydrooxazolo[4,5-c]pyridines as potent and orally-active metabotropic glutamate receptor 5 negative allosteric modulators” (Bioorg Med Chem Lett, 2017)
≈ marks a conversion by molar mass, not a printed value. Calls of active or inactive are those of the source. The rule behind the calls is not given here.

Tests used:
[1] = target: Metabotropic glutamate receptor 5 (Homo sapiens, UniProt P41594); test: Negative allosteric modulation of human recombinant mGluR5 expressed in HEK293 cells assessed as inhibition of glutamate-induced calcium mobilization preincubated for 2 mins followed glutamate addition measured by fluorescence assay; format: functional, cell-based
Chain of Metabotropic glutamate receptor 5 (P41594 whole entry): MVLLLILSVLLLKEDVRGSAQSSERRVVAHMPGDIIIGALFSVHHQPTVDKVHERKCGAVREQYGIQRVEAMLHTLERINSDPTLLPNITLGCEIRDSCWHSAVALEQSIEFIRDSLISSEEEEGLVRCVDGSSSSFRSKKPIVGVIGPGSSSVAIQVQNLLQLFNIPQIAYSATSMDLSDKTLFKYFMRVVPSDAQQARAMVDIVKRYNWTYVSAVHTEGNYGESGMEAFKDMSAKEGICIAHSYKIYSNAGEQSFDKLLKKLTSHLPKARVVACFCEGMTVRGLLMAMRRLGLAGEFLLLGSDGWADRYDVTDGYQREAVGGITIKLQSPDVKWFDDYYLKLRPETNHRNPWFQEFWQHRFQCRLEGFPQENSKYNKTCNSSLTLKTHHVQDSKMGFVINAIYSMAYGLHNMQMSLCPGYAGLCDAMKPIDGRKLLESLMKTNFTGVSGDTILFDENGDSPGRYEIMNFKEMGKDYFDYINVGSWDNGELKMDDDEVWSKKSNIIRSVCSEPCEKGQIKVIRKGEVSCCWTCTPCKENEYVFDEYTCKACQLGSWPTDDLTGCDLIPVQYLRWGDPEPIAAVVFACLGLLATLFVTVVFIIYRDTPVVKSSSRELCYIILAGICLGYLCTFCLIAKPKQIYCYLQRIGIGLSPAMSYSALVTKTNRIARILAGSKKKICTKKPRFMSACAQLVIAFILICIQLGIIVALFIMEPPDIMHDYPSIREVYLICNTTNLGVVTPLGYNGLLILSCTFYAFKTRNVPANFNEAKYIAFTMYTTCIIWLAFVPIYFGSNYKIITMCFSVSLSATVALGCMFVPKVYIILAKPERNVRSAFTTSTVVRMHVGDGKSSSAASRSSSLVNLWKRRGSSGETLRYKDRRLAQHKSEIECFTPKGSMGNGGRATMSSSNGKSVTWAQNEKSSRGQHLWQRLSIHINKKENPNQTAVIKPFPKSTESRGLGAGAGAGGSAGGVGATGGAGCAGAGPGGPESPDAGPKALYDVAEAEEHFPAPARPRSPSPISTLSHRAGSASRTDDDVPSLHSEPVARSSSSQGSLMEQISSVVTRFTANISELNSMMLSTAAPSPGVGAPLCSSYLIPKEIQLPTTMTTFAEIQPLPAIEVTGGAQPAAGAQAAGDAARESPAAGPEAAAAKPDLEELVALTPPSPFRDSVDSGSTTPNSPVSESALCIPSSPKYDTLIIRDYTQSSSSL

[2] = Metabolic stability in rat hepatic microsomes assessed as parent compound remaining at 1 uM after 30 mins in presence of NADPH by LC-MS/MS analysis relative to control; format: ADME, Microsome; settings: liver microsomes, read-out: Stability
P-gp = test: Substrate activity at P-gp (unknown origin) assessed as efflux ratio; format: ADME; settings: human, not told
[3] = Oral bioavailability in rat at 10 mg/kg; format: ADME, organism-based; settings: in vivo
[4] = target: Voltage-gated inwardly rectifying potassium channel KCNH2 (Homo sapiens, UniProt Q12809); test: Inhibition of human ERG
Chain of Voltage-gated inwardly rectifying potassium channel KCNH2 (Q12809 whole entry): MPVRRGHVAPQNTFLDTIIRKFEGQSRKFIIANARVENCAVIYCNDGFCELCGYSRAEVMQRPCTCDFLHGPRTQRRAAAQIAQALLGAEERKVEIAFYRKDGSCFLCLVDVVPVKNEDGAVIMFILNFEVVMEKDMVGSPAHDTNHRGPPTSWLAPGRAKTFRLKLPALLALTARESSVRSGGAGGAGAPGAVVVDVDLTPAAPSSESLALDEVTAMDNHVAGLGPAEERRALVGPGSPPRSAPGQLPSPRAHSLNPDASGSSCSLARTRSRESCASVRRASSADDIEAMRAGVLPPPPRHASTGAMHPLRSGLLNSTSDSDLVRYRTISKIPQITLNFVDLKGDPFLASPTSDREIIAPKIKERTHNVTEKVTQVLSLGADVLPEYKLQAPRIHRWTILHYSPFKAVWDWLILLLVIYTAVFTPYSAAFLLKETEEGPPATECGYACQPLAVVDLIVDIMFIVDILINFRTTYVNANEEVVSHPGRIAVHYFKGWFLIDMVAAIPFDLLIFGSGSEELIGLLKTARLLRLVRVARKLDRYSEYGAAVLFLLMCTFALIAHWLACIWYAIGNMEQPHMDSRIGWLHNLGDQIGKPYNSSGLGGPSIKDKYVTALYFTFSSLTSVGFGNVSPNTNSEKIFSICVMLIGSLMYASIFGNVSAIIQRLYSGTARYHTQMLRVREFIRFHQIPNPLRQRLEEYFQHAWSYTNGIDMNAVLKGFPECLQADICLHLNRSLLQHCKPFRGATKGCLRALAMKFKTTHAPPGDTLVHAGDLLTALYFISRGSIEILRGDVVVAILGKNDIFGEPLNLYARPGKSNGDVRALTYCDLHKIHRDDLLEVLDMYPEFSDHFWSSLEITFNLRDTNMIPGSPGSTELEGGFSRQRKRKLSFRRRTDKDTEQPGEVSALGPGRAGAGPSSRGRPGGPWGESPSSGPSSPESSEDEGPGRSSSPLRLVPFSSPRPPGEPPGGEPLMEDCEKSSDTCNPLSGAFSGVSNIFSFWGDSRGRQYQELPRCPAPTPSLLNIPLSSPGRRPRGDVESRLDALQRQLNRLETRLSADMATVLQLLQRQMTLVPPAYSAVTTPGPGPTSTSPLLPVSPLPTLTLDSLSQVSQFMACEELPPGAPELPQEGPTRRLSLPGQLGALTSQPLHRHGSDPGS

Rattus norvegicus [5] = test: Ex vivo receptor occupancy at mGluR5 in Sprague-Dawley rat brain po administered daily for 4 days in presence of [3H]-MPEPy by liquid scintillation counting method; format: functional, organism-based
[6] = Oral bioavailability in monkey at 10 mg/kg; format: ADME, organism-based, Macaca mulatta; settings: rhesus monkey, in vivo
[7] = […] of CYP450 in human liver microsomes as substrate after 10 mins by LC-MS/MS analysis; format: ADME
[8] = AUC in rat at 0.35 mg/kg, iv; format: ADME, organism-based; settings: in vivo
Cytochrome P450 2C8 = target: T1, Cytochrome P450 2C8 (Homo sapiens, UniProt P10632); test: Inhibition of CYP2C8 in human liver microsomes using amodiaquine as substrate after 10 mins by LC-MS/MS analysis; format: ADME
T1 sequence (P10632 whole entry): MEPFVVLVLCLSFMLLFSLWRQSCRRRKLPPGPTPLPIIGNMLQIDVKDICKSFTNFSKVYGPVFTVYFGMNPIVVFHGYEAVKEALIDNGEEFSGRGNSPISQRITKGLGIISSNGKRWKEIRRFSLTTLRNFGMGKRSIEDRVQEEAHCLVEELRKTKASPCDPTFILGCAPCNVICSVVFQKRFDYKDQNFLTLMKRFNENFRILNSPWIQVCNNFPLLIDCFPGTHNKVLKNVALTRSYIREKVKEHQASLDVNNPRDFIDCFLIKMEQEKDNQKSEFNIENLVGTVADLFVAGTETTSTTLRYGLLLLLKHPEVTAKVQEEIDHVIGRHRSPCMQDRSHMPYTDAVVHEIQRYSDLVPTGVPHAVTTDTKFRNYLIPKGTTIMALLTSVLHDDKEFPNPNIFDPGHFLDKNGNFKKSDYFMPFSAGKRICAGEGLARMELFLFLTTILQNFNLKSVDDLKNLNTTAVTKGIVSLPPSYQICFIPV

[9] = Permeability of the compound at pH 7.4 by PAMPA; format: physicochemical; settings: read-out: permeability
Cytochrome P450 3A4 = Cytochrome P450 3A4 (Homo sapiens, UniProt P08684); test: Inhibition of CYP3A4 in human liver microsomes using midazolam as substrate after 10 mins by LC-MS/MS analysis; format: ADME
Chain of Cytochrome P450 3A4 (P08684 whole entry): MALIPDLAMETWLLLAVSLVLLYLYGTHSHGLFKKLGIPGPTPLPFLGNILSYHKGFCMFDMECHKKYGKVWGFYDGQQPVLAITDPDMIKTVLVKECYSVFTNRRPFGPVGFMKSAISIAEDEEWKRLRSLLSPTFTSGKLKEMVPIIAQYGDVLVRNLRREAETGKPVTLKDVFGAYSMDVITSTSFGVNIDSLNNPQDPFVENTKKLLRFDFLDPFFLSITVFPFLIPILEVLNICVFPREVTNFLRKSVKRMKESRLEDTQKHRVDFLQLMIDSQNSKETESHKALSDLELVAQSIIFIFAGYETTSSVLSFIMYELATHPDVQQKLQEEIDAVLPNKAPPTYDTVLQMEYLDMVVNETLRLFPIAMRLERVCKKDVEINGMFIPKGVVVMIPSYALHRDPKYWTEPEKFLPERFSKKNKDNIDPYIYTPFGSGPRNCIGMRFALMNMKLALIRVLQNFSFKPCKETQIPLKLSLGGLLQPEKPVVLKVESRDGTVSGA

[10] = Metabolic stability in human hepatic microsomes assessed as parent compound remaining at 1 uM after 30 mins in presence of NADPH by LC-MS/MS analysis relative to control; format: ADME, Microsome; settings: liver microsomes, read-out: Stability
[11] = AUC in monkey at 10 mg/kg, po; format: ADME, organism-based, Macaca mulatta; settings: rhesus monkey, in vivo
Cytochrome P450 2C19 = Cytochrome P450 2C19 (Homo sapiens, UniProt P33261); test: Inhibition of CYP2C19 in human liver microsomes using (S)-mephenytoin as substrate after 10 mins by LC-MS/MS analysis; format: ADME
Chain of Cytochrome P450 2C19 (P33261 whole entry): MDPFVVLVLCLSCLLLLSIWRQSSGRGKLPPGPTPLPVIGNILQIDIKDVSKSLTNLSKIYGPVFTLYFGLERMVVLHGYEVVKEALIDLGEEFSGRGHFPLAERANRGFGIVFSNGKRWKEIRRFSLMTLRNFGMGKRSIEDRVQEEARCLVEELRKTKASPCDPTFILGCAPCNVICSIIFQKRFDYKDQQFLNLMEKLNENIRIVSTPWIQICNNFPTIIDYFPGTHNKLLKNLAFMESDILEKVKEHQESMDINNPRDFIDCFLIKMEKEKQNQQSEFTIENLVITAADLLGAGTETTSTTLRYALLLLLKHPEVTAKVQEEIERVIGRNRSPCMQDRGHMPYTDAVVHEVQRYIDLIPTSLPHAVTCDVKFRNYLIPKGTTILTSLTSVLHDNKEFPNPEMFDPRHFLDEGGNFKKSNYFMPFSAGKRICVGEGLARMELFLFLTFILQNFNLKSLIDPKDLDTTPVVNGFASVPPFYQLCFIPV

Cytochrome P450 2A6 = target: T2, Cytochrome P450 2A6 (Homo sapiens, UniProt P11509); test: Inhibition of CYP2A6 in human liver microsomes using coumarin as substrate after 10 mins by LC-MS/MS analysis; format: ADME
T2 sequence (P11509 whole entry): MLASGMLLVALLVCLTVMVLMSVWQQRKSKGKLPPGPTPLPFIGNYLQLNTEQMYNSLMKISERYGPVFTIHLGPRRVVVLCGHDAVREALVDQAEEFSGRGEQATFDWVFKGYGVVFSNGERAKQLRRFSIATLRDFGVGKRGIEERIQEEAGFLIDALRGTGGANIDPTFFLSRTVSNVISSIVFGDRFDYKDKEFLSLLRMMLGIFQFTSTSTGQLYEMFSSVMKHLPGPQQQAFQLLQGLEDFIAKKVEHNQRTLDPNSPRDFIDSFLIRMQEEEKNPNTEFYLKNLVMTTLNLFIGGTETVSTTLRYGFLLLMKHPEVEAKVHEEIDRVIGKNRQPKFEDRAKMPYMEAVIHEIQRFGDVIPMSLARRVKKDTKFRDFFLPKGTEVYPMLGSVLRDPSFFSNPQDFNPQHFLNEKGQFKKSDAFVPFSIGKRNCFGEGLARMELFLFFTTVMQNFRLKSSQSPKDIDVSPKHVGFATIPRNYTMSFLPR

[12] = AUC in rat at 10 mg/kg, po; format: ADME, organism-based; settings: in vivo
Rattus norvegicus [13] = test: Toxicity in rat at 100 mg/kg, po qd administered via gavage for 14 days; format: organism-based; settings: in vivo, 336 h
[14] = Clearance in rat at 0.35 mg/kg, iv after 24 hrs; format: ADME, organism-based; settings: in vivo
[15] = Volume of distribution at steady state in monkey at 0.5 mg/kg, iv after 24 hrs; format: ADME, organism-based, Macaca mulatta; settings: rhesus monkey, in vivo, read-out: Vdss
[16] = AUC in monkey at 0.5 mg/kg, iv; format: ADME, organism-based, Macaca mulatta; settings: rhesus monkey, in vivo
Rattus norvegicus [17] = test: Ex vivo receptor occupancy at mGluR5 in Sprague-Dawley rat brain at 0.3 mg/kg, po administered daily for 4 days in presence of [3H]-MPEPy by liquid scintillation counting method relative to control; format: functional
[18] = Cmax in monkey at 10 mg/kg, po; format: ADME, organism-based, Macaca mulatta; design: dose 10 mg/kg, route oral; settings: rhesus monkey, in vivo
Salmonella typhimurium = test: Genotoxicity in Salmonella typhimurium by Ames test; format: toxicity; settings: salmonella enterica subsp. enterica serovar typhimurium
[19] = Clearance in monkey at 0.5 mg/kg, iv after 24 hrs; format: ADME, organism-based, Macaca mulatta; settings: rhesus monkey, in vivo
[20] = Volume of distribution at steady state in rat at 0.35 mg/kg, iv after 24 hrs; format: ADME, organism-based; settings: in vivo, read-out: Vdss
Cytochrome P450 2D6 = Cytochrome P450 2D6 (Homo sapiens, UniProt P10635); test: Inhibition of CYP2D6 in human liver microsomes using bufuralol as substrate after 10 mins by LC-MS/MS analysis; format: ADME
Chain of Cytochrome P450 2D6 (P10635 whole entry): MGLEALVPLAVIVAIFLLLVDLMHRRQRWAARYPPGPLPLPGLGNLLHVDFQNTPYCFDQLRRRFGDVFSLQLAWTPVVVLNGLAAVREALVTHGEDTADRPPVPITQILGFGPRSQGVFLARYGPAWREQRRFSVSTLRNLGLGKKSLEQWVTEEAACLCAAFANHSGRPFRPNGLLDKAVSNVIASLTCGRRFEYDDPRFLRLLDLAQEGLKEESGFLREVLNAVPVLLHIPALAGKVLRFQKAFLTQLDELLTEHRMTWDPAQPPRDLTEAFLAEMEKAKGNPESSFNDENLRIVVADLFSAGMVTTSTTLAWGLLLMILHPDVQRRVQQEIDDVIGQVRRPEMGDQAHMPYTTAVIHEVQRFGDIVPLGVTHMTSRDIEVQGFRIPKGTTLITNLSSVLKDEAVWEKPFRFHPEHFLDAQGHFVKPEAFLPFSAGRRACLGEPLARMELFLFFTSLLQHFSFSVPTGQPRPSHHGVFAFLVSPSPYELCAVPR

[21] = Half life in rat at 0.35 mg/kg, iv; format: ADME, organism-based; settings: in vivo
Cytochrome P450 2C9 = Cytochrome P450 2C9 (Homo sapiens, UniProt P11712); test: Inhibition of CYP2C9 in human liver microsomes using diclofenac as substrate after 10 mins by LC-MS/MS analysis; format: ADME
Chain of Cytochrome P450 2C9 (P11712 whole entry): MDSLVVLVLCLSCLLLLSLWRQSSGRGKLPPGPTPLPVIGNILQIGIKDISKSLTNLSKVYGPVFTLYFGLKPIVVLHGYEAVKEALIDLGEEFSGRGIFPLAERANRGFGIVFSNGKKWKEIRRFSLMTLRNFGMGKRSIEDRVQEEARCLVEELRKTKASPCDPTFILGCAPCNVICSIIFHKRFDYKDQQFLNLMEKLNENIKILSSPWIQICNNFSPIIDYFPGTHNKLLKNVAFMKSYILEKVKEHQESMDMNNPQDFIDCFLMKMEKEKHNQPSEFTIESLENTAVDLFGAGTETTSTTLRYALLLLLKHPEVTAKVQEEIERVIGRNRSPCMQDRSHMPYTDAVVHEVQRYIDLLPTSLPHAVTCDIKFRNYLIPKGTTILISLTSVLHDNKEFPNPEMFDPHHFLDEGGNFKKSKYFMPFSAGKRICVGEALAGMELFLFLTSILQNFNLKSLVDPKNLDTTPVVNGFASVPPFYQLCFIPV

Cytochrome P450 1A2 = target: T3, Cytochrome P450 1A2 (Homo sapiens, UniProt P05177); test: Inhibition of CYP1A2 in human liver microsomes using phenacetin as substrate after 10 mins by LC-MS/MS analysis; format: ADME
T3 sequence (P05177 whole entry): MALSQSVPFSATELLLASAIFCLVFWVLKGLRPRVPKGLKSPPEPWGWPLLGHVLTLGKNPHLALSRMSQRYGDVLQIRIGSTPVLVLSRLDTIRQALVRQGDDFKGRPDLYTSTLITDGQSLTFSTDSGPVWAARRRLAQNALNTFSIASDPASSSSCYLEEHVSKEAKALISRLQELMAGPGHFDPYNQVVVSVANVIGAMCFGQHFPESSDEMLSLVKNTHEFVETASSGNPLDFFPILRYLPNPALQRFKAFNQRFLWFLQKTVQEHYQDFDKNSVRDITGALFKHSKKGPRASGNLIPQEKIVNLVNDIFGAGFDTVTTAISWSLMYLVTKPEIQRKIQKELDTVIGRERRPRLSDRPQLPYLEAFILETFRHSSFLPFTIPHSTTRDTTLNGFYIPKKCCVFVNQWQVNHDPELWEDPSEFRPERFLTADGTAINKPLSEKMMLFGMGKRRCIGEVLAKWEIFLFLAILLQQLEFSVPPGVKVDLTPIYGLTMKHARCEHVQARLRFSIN

[22] = Cmax in rat at 10 mg/kg, po; format: ADME, organism-based; design: dose 10 mg/kg, route oral; settings: in vivo
[23] = Half life in monkey at 0.5 mg/kg, iv; format: ADME, organism-based, Macaca mulatta; settings: rhesus monkey, in vivo
[24] = Aqueous solubility of compound at pH 7.4; format: physicochemical; settings: aqueous medium
Rattus norvegicus [25] = test: Antidepressant activity in Wistar rat assessed as decrease in immobility time at 0.3 to 1 mg/kg, po administered 15 mins post training session from day 2 to day 6 measured for 5 mins by forced swimming test; format: functional, organism-based

For Cc1ccc(-c2nc3c(o2)CCN(C(=O)c2ccccc2)C3)nc1, which IC50 [1] is on record?
Its IC50 is 0.177 µM.

With O=C(c1ccccc1)N1CCc2oc(-c3ccc(Cl)cn3)nc2C1 as the molecule, how does the IC50 [1] read?
The IC50 was 0.032 µM.

Which remaining at 0.5 h, 1 µM [2] does the source give for O=C(c1ccccc1)N1CCc2oc(-c3ccc(F)cn3)nc2C1 here?
The remaining at 0.5 h, 1 µM was 91 to 97%.

And the efflux ratio (P-gp)?
Its efflux ratio is 1.1.

What about the bioavailability [3] of the same molecule?
Its bioavailability is 102%.

What about the IC50 [4] of the same molecule?
Its IC50 is 64 µM.

And the Activity (Rattus norvegicus [5])?
The Activity was “Dose-dependent effect”.

What about the bioavailability [6] of the same molecule?
Its bioavailability is 139%.

And the Activity [7]?
The Activity was “Not Active”.

And the AUC [8]?
The AUC was 1290 ng·h/mL.

What about the IC50 (Cytochrome P450 2C8) of the same molecule?
The IC50 was greater than 50 µM.

And the Papp [9]?
The Papp was 34.5 ×10⁻⁶ cm/s.

What about the IC50 (Cytochrome P450 3A4) of the same molecule?
Its IC50 is greater than 50 µM.

And the remaining at 0.5 h, 1 µM [10]?
The remaining at 0.5 h, 1 µM was 91 to 97%.

What about the AUC [11] of the same molecule?
Its AUC is 57100 ng·h/mL.

What about the IC50 (Cytochrome P450 2C19) of the same molecule?
The IC50 was greater than 50 µM.

And the IC50 (Cytochrome P450 2A6)?
Its IC50 is greater than 50 µM.

And the AUC [12]?
The AUC was 37400 ng·h/mL.

What about the Activity (Rattus norvegicus [13]) of the same molecule?
Its Activity is “Non-Toxic”.

What about the clearance [14] of the same molecule?
Its clearance is 4.6 mL/min/kg.

And the Vd [15]?
Its Vd is 1.6 L/kg.

And the AUC [16]?
The AUC was 2060 ng·h/mL.

What about the Occ (Rattus norvegicus [17]) of the same molecule?
Its Occ is 50%.

What about the Cmax [18] of the same molecule?
The Cmax was 3900 ng/mL.

And the Activity (Salmonella typhimurium)?
Its Activity is “Non-Toxic”.

What about the clearance [19] of the same molecule?
Its clearance is 4.2 mL/min/kg.

What about the Vd [20] of the same molecule?
Its Vd is 0.73 L/kg.

And the IC50 (Cytochrome P450 2D6)?
Its IC50 is greater than 50 µM.

What about the half-life [21] of the same molecule?
The half-life was 2.1 h.

And the IC50 (Cytochrome P450 2C9)?
Its IC50 is greater than 50 µM.

What about the IC50 [1] of the same molecule?
The IC50 was 0.054 µM.

What about the IC50 (Cytochrome P450 1A2) of the same molecule?
The IC50 was greater than 50 µM.

And the Cmax [22]?
Its Cmax is 2750 ng/mL.

And the half-life [23]?
The half-life was 4.8 h.

And the solubility [24]?
Its solubility is 16 µg/mL (≈ 49.5 µM).

What about the Activity (Rattus norvegicus [25]) of the same molecule?
The Activity was “Active”.

Which results are given for N#Cc1cc(F)cc(C(=O)N2CCc3oc(-c4ccc(F)cn4)nc3C2)c1?
remaining at 0.5 h, 1 µM [2]: > 97%; remaining at 0.5 h, 1 µM [10]: > 97%; IC50 [1]: 0.403 µM
